Here are results for one compound from patent publication US20240245696A1, “INHIBITORS OF DNA PK AND USES THEREOF” (BioVentures, LLC, priority 2017, published 2024).

The test system of assay [1] is skin allograft mouse model. As to the kind of experiment: Mouse skin allograft. The assay is classed as in vivo. As for the experimental part:
Materials: DNA-PK inhibitor, NU7441 was purchased from Selleckchem.com and used in vivo at 10 mg/kg diluted in DMSO and 40% PEG or in vitro at 5 μM. Tacrolimus (FK506) was ordered for Sigma Aldrich and used at a concentration of 1 mg/kg in vivo.
Mouse skin allograft: To confirm that DNA-PK inhibitors could function as an immunosuppressant in vivo, mouse skin allograft studies were performed. All studies were performed under an approved IACUC protocol. Ears from donor BALBc mice were removed and split into two removing all cartilaginous material. The ear skin was placed on an incision made to the back of a recipient C57BI6 or DNA-PK knockout (NOD.CB17-Prkdc scid/J-20) mouse. The skin was sutured in 4 places using 6-0 nylon sutures. Wounds were wrapped in gauze and ban-daids and allowed to heal for 6 days before removing the bandage. Spleens were harvested from donor mice for splenocyte isolation. On Day 0 through Day 10 (the day of sacrifice) mice were injected (100 ul) daily with one of the following: saline, Tacrolimus (1 mg/kg), or NU7441 ([…]). Mice were monitored for rejection daily which was indicated by dark, black appearance. At the time of sacrifice, mice were euthanisized according to IACUC guidelines and skin grafts removed and fixed in formalin for histology. Spleens and blood were also collected.

In the next assay the target is DNA-PKcs (Homo sapiens, UniProt P78527). In words: Western blot of phosphorylated DNA-PKcs (s2056) in activated Jurkat cells. Type of assay: cell-based. On the set-up: host or cells: Jurkat cells. Conditions: Jurkat activated with PMA+PHA. For orientation: Immunoblotting shows a protein as a band on a membrane.
The next assay deals with PD-1. In words: qPCR of PD-1 expression in stimulated Jurkat cells. The assay is classed as cell-based, human. Conditions: PHA+PMA stimulation. As for the experimental part:
Evaluation of PD-1 and IL-2 expression: The effect of NU7441 on the expression of PD-1, a protein with immunosuppressant function, and IL-2 was examined in Jurkat cells following stimulation with PHA+PMA and treatment with the inhibitor NU7441. qPCR analysis was performed using primers specific for PD1 and IL-2 sequences.

The subject of the next assay is Th17 T cells. As to the kind of experiment: qPCR on T cell markers, Th17 differentiation of naïve CD4+ T cells. Type of assay: cell-based. Conditions: naïve CD4+ T cells from mouse spleens. As for the experimental part:
qPCR on T cell markers: Naïve CD4+ T cells were isolated by standard methods from the spleens of Balbc mice. T cells were grown in culture and treated with cytokines specific for differentiate into Th1 and Th17 subtypes. Additionally, T cells were cultured with NU7441 and FK506. qPCR was performed looking at the following markers: Batf3, RORyt, IL17, IL22, TGFBeta, Lymphotoxin, T-Bet.
(Real-time PCR tracks product formation cycle by cycle.)

A further assay concerns Cabin1. As to the kind of experiment: Western blot of Cabin1 expression in activated Jurkat cells. Type of assay: cell-based, human. Conditions: Jurkat activated with PMA+PHA. As for the experimental part: Cell lysis and nuclear extract: Cells were washed with cold PBS twice and centrifuged at 5000 rpm for 5 minutes. For the nuclear extract, pellets were suspended with 800 μL of 10 mN HEPES lysis buffer (10 mM HEPES at pH 7.9, 10 mM KCl, 1 mM DTT, and 1× protease and phosphatase inhibitor) and incubated on ice for 15 minutes. 50 μL of NP-40 (10% in water) was added and the pellets were mixed for 10 seconds. Lysates were centrifuged for 5 minutes at 4° C. at 13,000 rpm. The supernatant solution which is containing the cytosolic fraction was discarded and the pellets were resuspended in 20 mM HEPES lysis buffer (20 mM HEPES at pH 7.9, 0.4 M NaCl, 1 mM DTT, and 1× protease, and phosphatase inhibitor) and incubated on ice for 15 minutes with intermittent mixing. Lysates were centrifuged for 10 minutes at 4° C. at 13,000 rpm. The supernatant containing nuclear extract was stored at -20° C. until they were used for the Western blot analysis. For total cell lysates, cell pellets were resuspended with 100 μL of RIPA buffer (150 mM NaCl, 1% Triton X-100, 0.1% SDS, and 50 mM Tris at pH 8.0) and incubated on ice for 10 minutes. The lysates were centrifuged for 10 minutes at 4° C. at 13,000 rpm and the supernatant solutions were stored at -20° C. until they were used for the Western blot analysis. Western blot analysis: Nuclear extract lysates were separated on 3-8% Tris-Acetate gels (Invitrogen). […]

Method for DNA-PKcs: Cell Culture: Human peripheral blood mononuclear cells (PBMC,) and Jurkat cells were purchased from ATCC (PCS-800-011, Manassas, VA). Cells were maintained at 37° C. in a humidified atmosphere composed of 5% CO2. […] Both Jurkat cells and PBMC were stimulated with PHA (50 ng/mL) and PMA (1 μg/mL) for 24 hours prior to harvesting for IL-2 detection or 6 hours prior for western blot analysis. The NU7441 DNA-PKcs inhibitor was added at varying concentrations at the time of stimulation.
Cell lysis and nuclear extract: Cells were washed with cold PBS twice and centrifuged at 5000 rpm for 5 minutes. For the nuclear extract, pellets were suspended with 800 μL of 10 mN HEPES lysis buffer (10 mM HEPES at pH 7.9, 10 mM KCl, 1 mM DTT, and 1× protease and phosphatase inhibitor) and incubated on ice for 15 minutes. 50 μL of NP-40 (10% in water) was added and the pellets were mixed for 10 seconds. Lysates were centrifuged for 5 minutes at 4° C. at 13,000 rpm. The supernatant solution which is containing the cytosolic fraction was discarded and the pellets were resuspended in 20 mM HEPES lysis buffer (20 mM HEPES at pH 7.9, 0.4 M NaCl, 1 mM DTT, and 1× protease, and phosphatase inhibitor) and incubated on ice for 15 minutes with intermittent mixing. Lysates were centrifuged for 10 minutes at 4° C. at 13,000 rpm. […]

For the compound `O=c1cc(N2CCOCC2)oc2c(-c3cccc4c3sc3ccccc34)cccc12` [NU7441], the “level of necrosis of skin graft, average” value in assay [1] (Day 10, BALBc donor skin on C57BI6 recipient, daily injection Day 0 through Day 10) is on record as “around 30%”. Besides, the “rejection in skin allograft mouse model” value in assay [1] (compared to control groups treated only with saline) is reported as “reduces rejection”. In addition, the “visual examination of graft necrosis” value in assay [1] (treatment groups vs saline groups (severe necrosis)) is “majority with 0% necrosis”. For the same compound, the “DNA-PKcs phosphorylation (s2056)” value at DNA-PKcs is “effectively inhibited DNA-PKcs phosphorylation”; on DNA-PKcs (listed as NU744) it was “reduced”. For the same compound, the “expression level of PD-1” value in the assay on PD-1 is recorded as “did not alter”. For the same compound, in the assay on Th17 T cells, the “Th17 differentiation (markers Batf3, RoRyt, IL22, TGFBeta, IL17)” value was “suppressing a Th17 environment”. Besides, the results for the Cabin1 expression result with Cabin1 and in the assay on Cabin1 (listed as NU744) were “elevated Cabin1 expression” and “increase in Cabin1 expression”, respectively.
